Series [1] has as its system permanent middle cerebral artery occlusion (MCAO) in rats. Kind of series: Functional recovery following permanent MCAO in rats (Example 1). The format is in vivo, Sprague Dawley Rats. The settings on record: for Infarct Volume (%): day 28 after permanent MCAO, percentage of intact contralateral hemispheric volume, mean ± S.E.M. From the text: The purpose of this study was to evaluate the efficacy of arimoclomol and iroxanadine in enhancing neurological recovery in a model of permanent middle cerebral artery occlusion (MCAO) in rats. The permanent MCAO is a well accepted and considered to be a standard animal model for studying clinical aspects of stroke. (Stroke. 1999; 30:2752-2758.)
Forty male Sprague Dawley Rats, each weighing 300-400 g, which had been housed and handled for behavioral assessment for seven (7) days prior to surgery for acclimation purposes, were operated under anesthesia to create focal cerebral infarcts by permanent occlusion of the proximal right middle cerebral artery (MCA) according to modified Tamura model. Briefly, the rats were anesthetized with 2-3% halothane in the mixture of N2O:O2 (2:1), and were maintained with 1˜1.5% halothane in the mixture of N2O:O2 (2:1). The temporalis muscle was bisected and reflected through an incision made midway between the eye and the eardrum canal. The proximal MCA was exposed through a subtemporal craniectomy without removing the zygomatic arch and without transecting the facial nerve. […] Body temperature was maintained at 37.5° C.±0.5° C. throughout the entire procedure. Cefazolin (40 mg/kg; Baxter, Lot 06014.1, Exp. January 2009) was given i.p. one day before MCAO and just after MCAO to prevent infections.
The rats were randomly divided into 4 groups of 10 animals each. One group was given arimoclomol, p.o., starting at one hour after the occlusion at 200 mg/kg/d once daily for 3 days, then 50 mg/kg/d once daily for a total of 29 days. The second group was given iroxanadine using the same dosing regimen as for arimoclomol. The third group is a positive control group and is given intracistemally 1 μg (at 20 μg/ml, also containing 100 μg/ml of bovine serum albumin) beta-fibroblast growth factor (bFGF) one hour and one day (i.e. two administrations) after the occlusion. The fourth group is a negative control with administration of the vehicle only.
Animals were evaluated preoperation (day −1), then every 7 days after the operation (7, 14, 21, and 28 days) by forelimb and hindlimb placing tests and body swing test, which are widely accepted as standard tests indicative of functional recovery after a stroke model.
For the forelimb placing test, the examiner held the rat close to a tabletop and scored the rat's ability to place the forelimb on the tabletop in response to whisker, visual, tactile, or proprioceptive stimulation. Similarly, for the hindlimb placing test, the examiner assessed the rat's ability to place the hindlimb on the tabletop in response to tactile and proprioceptive stimulation. Separate sub-scores were obtained for each mode of sensory input (halfpoint designations possible), and added to give total scores (for the forelimb placing test: 0=normal, 12=maximally impaired; for the hindlimb placing test: 0=normal; 6=maximally impaired).
For the body swing test, the rat was held approximately one inch from the base of its tail. It was then elevated to an inch above a surface of a table. The rat was held in the vertical axis, defined as no more than […] to either the left or the right side. A swing was recorded whenever the rat moved its head out of the vertical axis to either side. The rat must return to the vertical position for the next swing to be counted. Thirty (30) total swings were counted. A normal rat typically has an equal number of swings to either side. Following focal ischemia, the rat tends to swing to the contralateral (left) side.
The behavior was evaluated by giving the score ranging in the parentheses after each test: • Forelimb placing test (0-12), consisting of whisker tactile placing (0-2); visual placing (forward, sideways) (0-4); tactile placing (dorsal, lateral) (0-4); and proprioceptive placing (0-2); • Hindlimb placing test (0-6), consisting of tactile placing (dorsal, lateral) (0-4); and proprioceptive placing (0-2). […]

For series [2], the system named is mice under cytotoxic hypoxia. The settings on record: mouse, in vivo.
The subject of series [3] is transient global cerebral ischemia in gerbils. Kind of series: Neuroprotection from transient global cerebral ischemia in gerbils. The settings on record: 50 mg/kg intraperitoneally prior to surgery; two experiments. The format is in vivo, Mongolian gerbils. How it is done: Adult male Mongolian gerbils weighing 60-80 g were intraperitoneally administered 50 mg/kg of Compound 2 prior to surgery to induce transient global cerebral ischemia. The gerbils were operated under anesthesia with 2% halthane in a gas mixture of 70% N2O and 30% O2, followed by maintenance at 1% halothane to surgically expose and clamp the carotid arteries for 5 minutes to prevent the blood flow to the brain. After 5 minutes, the clamps were removed and reperfusion occurred. The gerbils were evaluated for motility and spontaneous alteration in a Y maze test essentially as described in Gupta and Sharma, Biol. Pharm. Bull. 29(5) 957-961 (2006), and were decapitated 4 days after reperfusion for histological evaluation for the neuronal survival in the hippocampal CA-1 area.

The nature of series [4]: in vivo. The settings on record: mouse.
In series [5] the test system is bacterial reverse mutation. Kind of series: Standard bacterial reverse mutation assays.
Series [6] deals with cardiac ischemia/reperfusion in rats. Kind of series: Experimental cardiac ischemia/reperfusion in rats. It counts as in vivo. The settings on record: administered prior to ischemia/reperfusion.
Setting [7] is: treatment from 1 h after occlusion, up to 28 days.

The values that follow come from patent publication US20090233917A1, “Stroke recovery” (priority 2006, published 2009).

As to “bFGF: positive control, beta-fibroblast growth factor (bFGF) given intracisternally”, the “Infarct Volume (%)” value in series [1] amounted to 23.1 ± 1.7%. Further, in series [1] (setting [7]), the “Body Swing Test, recovery compared to vehicle group” value is on record as “superior to the vehicle group”; the “Forelimb Placing Test, recovery compared to vehicle group” value is recorded as “superior to the vehicle group”; the “Hindlimb Placing Test, recovery compared to vehicle group” value is given as “superior to the vehicle group”.
`c1cncc(C2=NOCC(CN3CCCCC3)N2)c1` (centres unmarked) [iroxanadine, 5,6-dihydro-5(1-piperidinyl)-methyl-3-(3-pyridyl)-4H-1,2,4-oxadiazine]: in series [1], the “Infarct Volume (%)” value is on record as 21.8 ± 2.1%.
In the case of `CC(C)(C)NCC(O)CO/N=C(\Cl)c1cccc(C(F)(F)F)c1` (centres unmarked) [Compound 2, N-[3-(1,1-dimethylethyl)amino-2-hydroxypropoxy]-3-trifluoromethylbenzene-carboximidoyl chloride], the “survival time under cytotoxic hypoxia” value in series [2] is “significantly increased”. Also, the “neuroprotection (motility, Y maze, neuronal survival in hippocampal CA-1) compared to control group” value in series [3] is recorded as “neuroprotective effects”. Also, the LD50 (as a rule, the dose at which mortality reaches 50%) in series [4] was approximately 1000 mg/kg. Besides, the mutagenicity result in series [5] is listed as “not to be mutagenic”. In addition, in series [6], the “duration of ventricular arrhythmias” value was “significantly decreased” and the overall survival entry is recorded as “increased”.
